Experimental data: patent US20100197584A1, “USE OF CURCUMIN TO BLOCK BRAIN TUMOR FORMATION IN MICE” (Research Foundations of the City University of- New York, priority 2007, published 2010)

How the values were obtained:
[1] = tested on: B16F10 (mouse melanoma) cells; assay: Caspase-3/7 assay in B16F10 cells; type: cell-based; settings: 20 μM and 50 μM, 48 h or 96 h (FIG. 1)
Method: (§1) Cells. B16F10 (mouse melanoma), GL261 (mouse glioma), HOG (human oligodendroglioma), A549 (human lung cancer), and […] (mouse neuroblastoma) cells were cultured separately in DMEM containing 10% (v/v) fetal bovine serum and 1% (v/v) penicillin-streptomycin (PS) and allowed to grow to 40% confluence in a 96-well plate. Curcumin Treatment. Two hours before drug treatment, the medium in each well was replaced with 200 μl Neurobasal medium supplemented with 2% (v/v) B27 and 1% (v/v) PS (Drug-treatment Medium). A stock solution (40 mM) of curcumin was prepared in sterile dimethyl sulfoxide (DMSO) (Example 1). Through serial dilution of each stock solution in Drug-treatment Medium, the following concentrations were obtained: 20 μM and 50 μM (for caspase 3/7 assays) or 25 μM and 50 μM (for MTT assays). Drug-treatment Medium in each well was aspirated, and a drug solution of each concentration or carrier-containing medium (control) was added to triplicate wells of cells (50 μl/well). […] Additionally, the background absorbance was determined from parallel wells containing only the Drug-treatment Medium plus a particular concentration of the drug (no cells). […] Fluorescence in each well was measured using the FLx 800 plate reader (Bio-Tek Instruments, Winooski, Vt.) set at 485/20 nm excitation and 528/20 nm emission wavelengths and the sensitivity of 70. […]

[2] = tested on: normal (non-tumor) brain cells; assay: Normal brain cell viability (MTT on brain sections); type: in vivo; settings: 200 μl of 667 μM, tail vein, three consecutive days; compared to carrier-injected mice (FIG. 10)
Method: In each experiment, three mice were injected with 200 μl of PBS containing 3% DMSO, and three mice were injected with 200 μl of 667 μM curcumin (as described earlier) through the tail vein on three consecutive days by the method described above. On the fourth day, the mice were perfused with PBS through the heart, and the brains sectioned into 400-μm sections. Similar brain sections were also made from untreated mice which were then treated with 1 mM H2O2 in PBS for one hour, followed by incubation in H2O2-free DTM for three hours. These samples were used as a positive control for cell death.
The sections from each mouse were placed in 400 μl PBS in one well of a 48-well plate (i.e. three wells for three mice) and then treated with 200 μl of MTT (5 mg/ml) per well with gentle mixing at 37° C. for about 2 hours. Subsequently, 800 μl of the lysis buffer was added to each well, and the plate was sealed and incubated overnight at 37° C. with gentle mixing. Three 100-μl portions of the tissue solution obtained were next transferred to three respective wells of a 96-well plate (i.e. three wells per mouse and nine wells for three mice in one group) and absorbance at 570 nm was measured using a 96-well multi scanner auto-reader. Results obtained were normalized to protein levels and then expressed as percent of carrier-treated samples.

[3] = tested on: BclXL; assay: Western blot of B16F10 cells, BclXL; type: cell-based, mouse; settings: 50 μM (FIG. 9)
Method: B16F10 cells were cultured in 10-cm plates and then treated in duplicate with carrier or curcumin (50 μM). Following treatment for appropriate time periods, the cells were washed with PBS, lysed in RIPA buffer (PBS containing 1% Nonidet P40, 0.5% sodium deoxycholate, 0.1% SDS, 0.5 mM Na3VO4 plus freshly added PMSF and protease inhibitor cocktail; Boeringer-Roche), and then 20 μg of lysate protein (per lane) were analyzed by SDS-10% PAGE and Western blot analysis. Antibody concentrations used were: anti-phospho-NF-κB (1:1000) (Santa Cruz Biotechnology, Santa Cruz, Calif.), anti-phospho-Akt (1:5000) (Cell Signaling, CA), anti-cyclin D1 (1:1000) (Cell Signaling, CA), anti-BclXL (1:500) (Santa Cruz Biotechnology), anti-VEGF (1:500) (Santa Cruz Biotechnology), and anti-β-actin (1:1000) (Sigma, St. Louis, Mo.).

[4] = cited from earlier work
[5] = tested on: N18 (mouse neuroblastoma) cells; assay: Caspase-3/7 assay in N18 cells; type: cell-based; settings: 20 μM and 50 μM, 48 h or 96 h (FIG. 2)
Method: as §1

With COc1cc(/C=C/C(=O)CC(=O)/C=C/c2ccc(O)c(OC)c2)ccc1O [curcumin] the caspase-3/7 activity [1] was “increased”, the “cell viability in the brain (MTT activity)” value [2] was “did not cause suppression of cell viability” and the “BclXL (Western blot)” value [3] was “suppression”. The solubility in water [4] was “very low” and the caspase-3/7 activity [5] was “increased”.
